Source: patent US12201624B2, “Compositions comprising mixtures of compounds and uses thereof” (Prostasis, LLC, priority 2021, dated 2025)

Experiment: Plasma and brain levels of the components by LC-MS/MS after 10 days of HFD containing the exemplary composition
Excerpt: In all studies described below, animals on the test diet received either a high fat diet (HFD) or a low-fat diet (LFD) ad libitum, with the diet further containing the components listed in Table 5.
Adult female wild-type C57/BL6 (Envigo) were used for the experiments. The animals were group housed in plastic cages (3-5 animals/cage) and had access to food and water ad libitum. Experiments were approved by the Institutional Animal Care and Use Committee of Brains On-Line LLC, South San Francisco, CA.
Mice were fed a HFD containing a composition comprising nicotinic acid, berberine, silibinin, lipoic acid and taurine (see Table 5) for 10 days. Subjects were euthanized, and plasma and brain samples were collected after 10 days feeding with a HFD containing the composition. The blood was collected into a vial already containing EDTA anticoagulant. The blood was centrifuged at 2500×g at 4° C. for 10 minutes. Supernatants were stored as plasma samples at −80° C. Immediately following blood collection, whole brains were rapidly extracted, placed into a pre-weighed tube, and weighed. Samples were snap frozen with liquid nitrogen.
Levels of nicotinic acid, berberine, silibinin (active form of Siliphos®), lipoic acid and taurine were quantified in plasma and brain samples by LC-MS/MS.

[1] = female, C57/BL6, mouse, in vivo
[2] = female, C57/BL6, mouse, in vivo, 10 days

SMILES | Cumulative Brain (brain after 10 days administration in HFD, mice) [pmol/g] | concentration at 10 days [1] [nM] | Basal Plasma (basal plasma level, mice, LC-MS/MS) | Cumulative Brain [2] [pmol/g] | Basal Brain (mouse, in vivo) | Basal Brain [1] [nmol/g] | Basal Plasma (mouse, in vivo) | Cumulative Plasma [2] [nM]
COc1ccc2cc3[n+](cc2c1OC)CCc1cc2c(cc1-3)OCO2 [Berberine] | 265 | 20.5 | – | – | – | – | – | –
O=C(O)CCCCC1CCSS1 (stereo not drawn) [Lipoic acid] | – | 68.2 | <LLOQ | 21 | <LLOQ | – | – | –
O=C(O)c1cccnc1 [Nicotinic acid] | – | 1360 | – | 12600 | – | 9.4 | <LLOQ | –
COc1cc(C2Oc3cc([C@H]4Oc5cc(O)cc(O)c5C(=O)[C@@H]4O)ccc3OC2CO)ccc1O (stereo partly drawn) [Silibinin] | – | – | – | 12.9 | – | – | – | 21
